# Measurements as given in US11400107B2, “Cancer treatments” (NuCana plc, priority 2016, dated 2022).
# “Also recorded” adds a separate entry of the source.
# Tested on: advance progressive cancers refractory to, or relapsed on, all conventional therapies
# Test: ProGem1 dose escalation clinical study of NUC-1031
# Format: in vivo, human
# Parameters: CA125 level: unit not given here
# Description: The following data were generated in clinical studies of NUC-1031 in human patients with advance progressive cancers that are refractory to, or have relapsed on, all conventional therapies that have been used to date. The results clearly illustrate the ability of NUC-1031 to successfully treat refractory cancers.
# Although the primary objectives of the dose escalation part of the study were to determine the Recommended Phase II Dose (RP2D) and safety profile, secondary objectives included determining the PK profile, however effective treatment of patients with a range of refractory cancers has also been observed as part of this study.
# A total of 68 patients have been entered into this dose escalation study, of which 49 were evaluable for clinical response in that they have received at least 2 Cycles of NUC-1031 and were therefore eligible for a RECIST 1.1 assessment.
# NUC-1031 was administered as a 5 to 30 minute intravenous slow bolus injection. • Schedule A: NUC-1031 was administered on days 1, 8, 15 of a 4 weekly Cycle. • Schedule B: NUC-1031 was administered on days 1, 5, 8, 12, 15, 19, of a 4 weekly Cycle. Evaluable Patients [n=49]
# Evaluable patients were patients that received ≥2 Cycles of NUC-1031 and were therefore eligible for a RECIST 1.1 assessment at the end of Cycle 2. Where the disease response duration, measured in months, is followed by a “+” this indicates ongoing disease control as of the latest cut-off date.
# [1] = Patient 040, cholangiocarcinoma, 1,000 then 900 mg/m^2 weekly
# [2] = Patient 041, breast cancer, 900 then 825 mg/m^2 weekly
# [3] = Patient 043, ovarian cancer, 900 then 750 mg/m^2 weekly
# [4] = Patient 044, lung cancer, 900 then 825 mg/m^2 weekly
# [5] = Patient 046, adrenal carcinoma, 1,000, 900, 750, then 625 mg/m^2 weekly
# [6] = Patient 048, ovarian cancer (granulosa cell tumour), 1,000 reduced stepwise to 625 mg/m^2 weekly
# [7] = Patient 052 (204), oesophageal cancer, 900 then 825 mg/m^2 weekly
# [8] = Patient 057 (209), ovarian cancer, 900, 825, then 750 mg/m^2 weekly
# [9] = Patient 058 (210), lung cancer, 825 then 750 mg/m^2 weekly
# [10] = Patient 059 (211), cervical cancer, 825, 750, then 625 mg/m^2 weekly
# [11] = Patient 061 (213), colorectal cancer, 825 mg/m^2 weekly
# [12] = Patient 063 (215), ovarian cancer, 825, 750, then 625 mg/m^2 weekly
# [13] = evaluable patients n = 49, RECIST 1.1
structure (smiles),measurement,setting,value
"C[C@H](NP(=O)(OC[C@H]1O[C@@H](n2ccc(N)nc2=O)C(F)(F)[C@@H]1O)Oc1ccccc1)C(=O)OCc1ccccc1 (stereo partly drawn) [NUC-1031, 2′-deoxy-2′,2′-difluoro-D-cytidine-5′-O-[phenyl (benzoxy-L-alaninyl)] phosphate]",Best response to RECIST,[1],Stable Disease
same,Duration of response to RECIST,[1],4 months
same,Tumour volume,"Patient 040, cholangiocarcinoma, end of Cycle 2 CT scan (85 at base)",82.1
same,CA19.9 level,"Patient 040, cholangiocarcinoma, on 4th June (664 at baseline)",155
same,Adverse events (grade),"Patient 041, breast cancer, 900 mg/m^2 weekly, Cycle 3",fatigue (G3)
same,Best response to RECIST,[2],Stable Disease
same,Duration of response to RECIST,[2],4 months
same,CA 15.3 tumour marker,"Patient 041, breast cancer, at C2 (726 at base)",845
same,CA 15.3 tumour marker,"Patient 041, breast cancer, on 19 May 2014 (726 at base)",824
same,Best response to RECIST,"Patient 042, cholangiocarcinoma, 900 mg/m^2 weekly",Progressive Disease
same,Adverse events (grade),"Patient 042, cholangiocarcinoma, 900 mg/m^2 weekly, days 3-5 following study drug",delayed onset fatigue (G2)
same,Reduction in tumour volume of primary target lesion,"Patient 042, cholangiocarcinoma, end of Cycle 2 CT scan",9%
same,Adverse events (grade),[3],delayed onset fatigue (G2); also recorded: Leg oedema developed to G3
same,Best response to RECIST,[3],Stable Disease
same,Duration of response to RECIST,[3],13 months
same,CA125 level,"Patient 043, ovarian cancer, beginning of Cycle 2 (1.099 at baseline as printed)",783
same,Reduction in tumour volume from baseline,"Patient 043, ovarian cancer, end of Cycle 6 CT scan",10%
same,CA125 level,"Patient 043, ovarian cancer, on 15th July (1,099 at baseline)",910
same,Volume of fluid drained from the pleural effusion,"Patient 043, ovarian cancer, on treatment (was 300 ml per week)",150 ml per week
same,Adverse events (grade),"Patient 044, lung cancer, 900 mg/m^2 weekly",G3 lung infection
same,Best response to RECIST,[4],Stable Disease
same,Duration of response to RECIST,[4],5 months
same,Reduction in tumour volume,"Patient 044, lung cancer, end of Cycle 2 CT scan",10%
same,Best response to RECIST,[5],Stable Disease
same,Duration of response to RECIST,[5],11 months
same,Adverse events (grade),"Patient 046, adrenal carcinoma, Cycle 1 at 1,000 mg/m^2, following Cycle 8 D1 at 900 mg/m^2","delayed onset fatigue, nausea and vomiting (all G3); also recorded: neutropenia (G2)"
same,Reduction in tumour volume from baseline,"Patient 046, adrenal carcinoma, end of Cycle 6 CT scan",12.6%
same,Best response to RECIST,[6],Stable Disease
same,Duration of response to RECIST,[6],8 months
same,inhibin B,"Patient 048, ovarian cancer, August (1,038 prior to study entry)",1148
same,inhibin B,"Patient 048, ovarian cancer, July 2014 (1,038 prior to study entry)","1,106"
same,inhibin B,"Patient 048, ovarian cancer, September (1,038 prior to study entry)",1053
same,Adverse events (grade),"Patient 048, ovarian cancer, following Cycle 1 Day 1 at 1,000 mg/m^2, neutropenia (G3) at Cycle 4","ALT, (G3, a DLT); also recorded: AST and neutropaenia (G2); also recorded: ALP (G1); also recorded: neutropenia (G3)"
same,Adverse events (grade),"Patient 050 (202), oesophageal cancer, 900 mg/m^2, following Cycle 1 Day 1","ALT and fatigue, both G3"
same,Best response to RECIST,"Patient 050 (202), oesophageal cancer, 900 mg/m^2 weekly",Progressive Disease
same,Best response to RECIST,"Patient 051 (203), anal cancer, 900 mg/m^2 weekly",Progressive Disease
same,Best response to RECIST,[7],Stable Disease
same,Duration of response to RECIST,[7],5 months
same,Best response to RECIST,"Patient 053 (205), colon cancer, 900 mg/m^2 weekly",Progressive Disease
same,Best response to RECIST,"Patient 055 (207), ovarian cancer, 900, 825, then 625 mg/m^2 weekly",Stable Disease
same,CA125 level,"Patient 055 (207), ovarian cancer, January 2015 (36 at baseline)",24
same,Reduction in tumour volume from baseline,"Patient 055 (207), ovarian cancer, end of Cycle 6 CT scan",18%
same,Duration of response to RECIST,"Patient 055 (207), ovarian cancer, ongoing, 900, 825, then 625 mg/m^2 weekly",≥ 10 months
same,Adverse events (grade),"Patient 057 (209), ovarian cancer, 900 mg/m^2, Cycle 1 Day 15",anaemia and ascites both G3
same,Best response to RECIST,[8],Stable Disease
same,Duration of response to RECIST,[8],5 months
same,Reduction in tumour volume from baseline,"Patient 057 (209), ovarian cancer, end of Cycle 4 CT scan",10%
same,Adverse events (grade),"Patient 058 (210), lung cancer, 825 mg/m^2, Cycle 1","G3 transaminitis (ALT), a DLT"
same,Best response to RECIST,[9],Stable Disease
same,Duration of response to RECIST,[9],4 months
same,Best response to RECIST,[10],Stable Disease
same,Duration of response to RECIST,[10],7 months
same,Adverse events (grade),"Patient 059 (211), cervical cancer, thrombocytopenia in Cycle 1 at 825 mg/m^2, fatigue in Cycle 3 at 750 mg/m^2",thrombocytopenia (G3); also recorded: fatigue (G3)
same,Best response to RECIST,"Patient 060 (212), pancreatic cancer, 825 mg/m^2 weekly",Progressive Disease
same,Adverse events (grade),"Patient 060 (212), pancreatic cancer, 825 mg/m^2 weekly, after Cycle 1","ALP, AST, ALT, all G3"
same,Best response to RECIST,[11],Stable Disease
same,Duration of response to RECIST,[11],3 months
same,Reduction in tumour volume,"Patient 061 (213), colorectal cancer, end of Cycle 2 CT scan",2%
same,Best response to RECIST,[12],Stable Disease
same,Duration of response to RECIST,[12],3 months
same,Adverse events (grade),"Patient 063 (215), ovarian cancer, Cycle 3 at 750 mg/m^2",fatigue (G3)
same,Best response to RECIST,"Patient 064 (216), trophoblastic cancer, 825 mg/m^2 weekly",Progressive Disease
same,Best response to RECIST,"Patient 066 (218), colorectal cancer, 825, 750, then 625 mg/m^2 weekly",Stable Disease
same,Duration of response to RECIST,"Patient 066 (218), colorectal cancer, ongoing, 825, 750, then 625 mg/m^2 weekly",≥ 8 months
same,Reduction in tumour volume from baseline,"Patient 066 (218), colorectal cancer, unscheduled CT scan on 30th December",16%
same,Adverse events (grade),"Patient 067 (219), osteosarcoma, 825 mg/m^2 weekly, towards the end of each Cycle",neutropenia G2
same,Best response to RECIST,"Patient 067 (219), osteosarcoma, 825 then 750 mg/m^2 weekly",Stable Disease
same,Increase (tumour) from baseline,"Patient 067 (219), osteosarcoma, EOS CT scan",1%
same,Duration of response to RECIST,"Patient 067 (219), osteosarcoma, ongoing, 825 then 750 mg/m^2 weekly",≥ 7 months
same,Best response to RECIST,"Patient 068 (220), lung cancer, 825 mg/m^2 weekly",Progressive Disease
same,Best response to RECIST,"Patient 069 (221), colorectal cancer, 825 reduced stepwise to 500 mg/m^2 weekly",Stable Disease
same,Adverse events (grade),"Patient 069 (221), colorectal cancer, Cycle 3 at 825 mg/m^2, after Cycle 4 D1 at 750 mg/m^2, Cycle 5 at 675 mg/m^2","neutropenia (G4); also recorded: neutropenia and leukopenia, G3; also recorded: neutropenia and leukopenia, G2"
same,Response on PET scan,"Patient 069 (221), colorectal cancer, PET scan on 30/10, 825 mg/m^2 weekly",Partial Response
same,Reduction in tumour volume from baseline,"Patient 069 (221), colorectal cancer, end of C2 CT scan",11%
same,Reduction in tumour volume from baseline,"Patient 069 (221), colorectal cancer, end of C4 CT scan",26%
same,Duration of response to RECIST,"Patient 069 (221), colorectal cancer, ongoing, 825 reduced stepwise to 500 mg/m^2 weekly",≥ 7 months
same,Best Overall Response: Partial Responses,[13],5 (10%) patients (%)
same,Best Overall Response: Progressive Disease,[13],11 (22%) patients (%)
same,Best Overall Response: Stable Disease,[13],33 (67%) patients (%)
